Key:
[1] = target: full-length MALT1 protein (Strep-MALT1(1-824)-His) (Homo sapiens (Human), UniProt Q9UDY8); assay: MALT1 Biochemical Protease Assay (Ac-LRSR-AMC substrate); settings: 10 nM FL MALT1, 200 μM Ac-LRSR-AMC, 4 h at RT; read-out: MALT1_Biochemical activity (Ac-LRSR-amc) IC50
How it was run: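 Fluorescence from AMC release off the quenched LRSR substrate was read after a 4 h reaction at RT. Values were normalised to no-enzyme and uninhibited controls and fitted for IC50 and Hill coefficient.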

[2] = tested on: IL10 secretion by TMD8 ABC-DLBCL cells; assay: Human IL10 Mesoscale assay (TMD-8); type: cell-based; settings: TMD-8 cells, 24 h
How it was run: (§1)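 After 24 h at 37 °C with test compounds (15 μM down to 58.6 nM, 9 twofold steps, 0.3% DMSO), IL6 and IL10 secreted by 100,000 OCI-LY3 or TMD8 cells per well were measured in supernatants with a Mesoscale immunoassay. Data were scaled between DMSO wells (high) and RN486 treatment (low).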

[3] = tested on: IL6 secretion by TMD8 ABC-DLBCL cells; assay: Human IL6 Mesoscale assay (TMD-8); type: cell-based; settings: TMD-8 cells, 24 h
How it was run: as §1

Chain of full-length MALT1 protein (Strep-MALT1(1-824)-His) (Q9UDY8 whole entry): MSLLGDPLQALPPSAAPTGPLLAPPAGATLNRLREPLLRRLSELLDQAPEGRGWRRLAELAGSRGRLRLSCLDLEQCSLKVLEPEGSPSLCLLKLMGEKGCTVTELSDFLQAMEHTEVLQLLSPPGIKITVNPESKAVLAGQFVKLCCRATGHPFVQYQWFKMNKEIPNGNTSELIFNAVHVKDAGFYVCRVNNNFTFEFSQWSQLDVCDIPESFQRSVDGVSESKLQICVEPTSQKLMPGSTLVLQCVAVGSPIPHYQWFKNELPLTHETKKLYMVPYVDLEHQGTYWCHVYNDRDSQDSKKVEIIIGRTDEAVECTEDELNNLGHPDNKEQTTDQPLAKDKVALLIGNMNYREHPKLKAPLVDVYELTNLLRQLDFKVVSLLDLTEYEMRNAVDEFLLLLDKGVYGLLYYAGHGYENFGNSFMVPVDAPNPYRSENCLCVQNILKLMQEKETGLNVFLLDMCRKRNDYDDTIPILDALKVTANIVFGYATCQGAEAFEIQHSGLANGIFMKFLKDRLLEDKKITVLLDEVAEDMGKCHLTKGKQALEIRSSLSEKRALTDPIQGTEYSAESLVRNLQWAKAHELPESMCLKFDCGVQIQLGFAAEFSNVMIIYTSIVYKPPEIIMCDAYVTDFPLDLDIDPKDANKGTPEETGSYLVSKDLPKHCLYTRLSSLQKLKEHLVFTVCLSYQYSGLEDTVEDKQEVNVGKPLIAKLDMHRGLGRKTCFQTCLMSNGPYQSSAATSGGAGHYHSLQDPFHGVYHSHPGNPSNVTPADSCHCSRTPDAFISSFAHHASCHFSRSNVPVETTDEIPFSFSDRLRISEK

Compound | IC50 [1] [nM] | IC50 ([2]; Homo sapiens, TMD8) [nM] | IC50 ([3]; Homo sapiens, TMD8) [nM] | IC50 [2] [nM] | IC50 [3] [nM]
N#Cc1cc(NC(=O)c2cnn(-c3ccnc4c(F)cccc34)c2C(F)(F)F)cnc1-n1nccn1 [Cpd 92, N-(5-cyano-6-(2H-1,2,3-triazol-2-yl)pyridin-3-yl)-1-(8-fluoroquinolin-4-yl)-5-(trifluoromethyl)-1H-pyrazole-4-carboxamide] | 19 | 132 | 102 | – | –
Cc1nc(-n2nccn2)c(Cl)cc1NC(=O)c1cnn(-c2ccc(F)c3nccn23)c1C(F)(F)F [Cpd 203, N-(5-chloro-2-methyl-6-(2H-1,2,3-triazol-2-yl)pyridin-3-yl)-1-(8-fluoroimidazo[1,2-a]pyridin-5-yl)-5-(trifluoromethyl)-1H-pyrazole-4-carboxamide] | 162 | 2690 | 5620 | – | –
N#Cc1cc(NC(=O)c2cnn(-c3cnnc4ccccc34)c2C(F)(F)F)cnc1-n1nccn1 [Cpd 93, 1-(Cinnolin-4-yl)-N-(5-cyano-6-(2H-1,2,3-triazol-2-yl)pyridin-3-yl)-5-(trifluoromethyl)-1H-pyrazole-4-carboxamide] | 60 | 501 | 447 | – | –
O=C(Nc1cnc(-n2nccn2)c(Cl)c1)c1cnn(-c2cccc3nc(C4CCN4)ccc23)c1C(F)(F)F (stereo not drawn) [Cpd 381, 1-(2-(azetidin-2-yl)quinolin-5-yl)-N-(5-chloro-6-(2H-1,2,3-triazol-2-yl)pyridin-3-yl)-5-(trifluoromethyl)-1H-pyrazole-4-carboxamide] | 4900 | 43 | 21 | – | –
O=C(Nc1cnc(-n2nccn2)c(Cl)c1)c1cnn(-c2cccc3snnc23)c1C(F)(F)F [Cpd 231, 1-(benzo[d][1,2,3]thiadiazol-4-yl)-N-(5-chloro-6-(2H-1,2,3-triazol-2-yl)pyridin-3-yl)-5-(trifluoromethyl)-1H-pyrazole-4-carboxamide] | 891 | 851 | 724 | – | –
CS(=O)(=O)c1cc(NC(=O)c2cnn(-c3cccc4ncccc34)c2C(F)(F)F)ccc1-n1ccnn1 [Cpd 213, N-(3-(methylsulfonyl)-4-(1H-1,2,3-triazol-1-yl)phenyl)-1-(quinolin-5-yl)-5-(trifluoromethyl)-1H-pyrazole-4-carboxamide] | 10000 | > 15100 | > 15100 | – | –
Cn1ncc2c(-n3ncc(C(=O)Nc4cnc(-n5nccn5)c(C#N)c4)c3C(F)(F)F)cccc21 [Cpd 239, N-(5-cyano-6-(2H-1,2,3-triazol-2-yl)pyridin-3-yl)-1-(1-methyl-1H-indazol-4-yl)-5-(trifluoromethyl)-1H-pyrazole-4-carboxamide] | 661 | 562 | 324 | – | –
Cc1nc(-n2nccn2)c(Cl)cc1NC(=O)c1cnn(-c2cnc(C#N)c3sccc23)c1C(F)(F)F [Cpd 416, N-(5-chloro-2-methyl-6-(2H-1,2,3-triazol-2-yl)pyridin-3-yl)-1-(7-cyanothieno[2,3-c]pyridin-4-yl)-5-(trifluoromethyl)-1H-pyrazole-4-carboxamide] | 2570 | > 15100 | > 15100 | – | –
O=C(Nc1cnc(-c2ncco2)c(Cl)c1)c1cnn(-c2cccc3ncccc23)c1C(F)(F)F [Cpd 91, N-(5-chloro-6-(oxazol-2-yl)pyridin-3-yl)-1-(quinolin-5-yl)-5-(trifluoromethyl)-1H-pyrazole-4-carboxamide] | 15 | 155 | 151 | – | –
COc1nccc2c(-n3ncc(C(=O)Nc4cnc(-n5nccn5)c(C#N)c4)c3C(F)(F)F)cccc12 [Cpd 281, N-(5-cyano-6-(2H-1,2,3-triazol-2-yl)pyridin-3-yl)-1-(1-methoxyisoquinolin-5-yl)-5-(trifluoromethyl)-1H-pyrazole-4-carboxamide] | 123 | 3020 | 2570 | – | –
O=C(Nc1cnc(OC(F)F)c(Cl)c1)c1cnn(-c2cncc3ccccc23)c1C(F)(F)F [Cpd 106, N-(5-chloro-6-(difluoromethoxy)pyridin-3-yl)-1-(isoquinolin-4-yl)-5-(trifluoromethyl)-1H-pyrazole-4-carboxamide] | 447 | 617 | 1260 | – | –
O=C(Nc1cnc(-n2nccn2)c(Cl)c1)c1cnn(-c2nsc3ncccc23)c1C(F)(F)F [Cpd 279, N-(5-chloro-6-(2H-1,2,3-triazol-2-yl)pyridin-3-yl)-1-(isothiazolo[5,4-b]pyridin-3-yl)-5-(trifluoromethyl)-1H-pyrazole-4-carboxamide] | 126 | 2750 | 3720 | – | –
N#Cc1cc(NC(=O)c2cnn(-c3cc(Cl)nc4ccccc34)c2C(F)(F)F)cnc1-n1nccn1 [Cpd 220, 1-(2-chloroquinolin-4-yl)-N-(5-cyano-6-(2H-1,2,3-triazol-2-yl)pyridin-3-yl)-5-(trifluoromethyl)-1H-pyrazole-4-carboxamide] | 2140 | 468 | 851 | – | –
N-(5-chloro-6-(4-methyl-2H-1,2,3-triazol-2-yl)pyridin-3-yl)-1-(quinolin-5-yl)-5-(trifluoromethyl)-1H-pyrazole-4-carboxamide [Cpd 304] | 62 | – | – | 3240 | 3310
Cc1cc(NC(=O)c2cnn(-c3cccc4ncccc34)c2C(F)(F)F)cnc1-n1ccn(C)c1=O [Cpd 218, N-(5-methyl-6-(3-methyl-2-oxo-2,3-dihydro-1H-imidazol-1-yl)pyridin-3-yl)-1-(quinolin-5-yl)-5-(trifluoromethyl)-1H-pyrazole-4-carboxamide] | 3470 | 87 | 174 | – | –
N#Cc1ncc(-n2ncc(C(=O)Nc3cnc(-n4nccn4)c(Cl)c3)c2C(F)(F)F)c2ccsc12 [Cpd 415, N-(5-chloro-6-(2H-1,2,3-triazol-2-yl)pyridin-3-yl)-1-(7-cyanothieno[2,3-c]pyridin-4-yl)-5-(trifluoromethyl)-1H-pyrazole-4-carboxamide] | 54 | 93 | 95 | – | –
O=C(Nc1cnc(-n2nccn2)c(Cl)c1)c1cnn(-c2cccc3ncccc23)c1Br [Cpd 188, 5-Bromo-N-(5-chloro-6-(2H-1,2,3-triazol-2-yl)pyridin-3-yl)-1-(quinolin-5-yl)-1H-pyrazole-4-carboxamide] | 115 | 50 | 46 | – | –
N#Cc1cc(NC(=O)c2cnn(-c3cccn4ccnc34)c2C(F)(F)F)cnc1-n1nccn1 [Cpd 230, N-(5-cyano-6-(2H-1,2,3-triazol-2-yl)pyridin-3-yl)-1-(imidazo[1,2-a]pyridin-8-yl)-5-(trifluoromethyl)-1H-pyrazole-4-carboxamide] | 1070 | 759 | 1410 | – | –
COC(=O)c1cc(-c2ncc(NC(=O)c3cnn(-c4cccc5ncccc45)c3C(F)(F)F)cc2C#N)nn1C [Cpd 267, methyl 3-(3-cyano-5-(1-(quinolin-5-yl)-5-(trifluoromethyl)-1H-pyrazole-4-carboxamido)pyridin-2-yl)-1-methyl-1H-pyrazole-5-carboxylate] | 155 | 56 | 35 | – | –
O=C(Nc1cnc(-n2nccn2)c(Cl)c1)c1cnn(-c2cnc(N3CC[C@@H](O)C3)c3sccc23)c1C(F)(F)F [Cpd 432, (R)—N-(5-chloro-6-(2H-1,2,3-triazol-2-yl)pyridin-3-yl)-1-(7-(3-hydroxypyrrolidin-1-yl)thieno[2,3-c]pyridin-4-yl)-5-(trifluoromethyl)-1H-pyrazole-4-carboxamide] | 98 | 363 | 933 | – | –
